Assay results published in patent US10442803B2, “Tricyclic heterocycles as bet protein inhibitors” (Incyte Corporation, priority 2013, dated 2019).
pIC50: −log10 of the molar value. Where a name gives a salt, the structure may show the parent alone.

System: KMS.12.BM cells
Experiment: KMS.12.BM cell viability assay
Type: cell-based
Conditions: 72 h; KMS.12.BM human myeloma cells, 3 days, Cell Titer-GLO ATP quantitation; read-out: KMS cellular IC50
Summary of the method: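 Human myeloma KMS.12.BM cells, 5000 per well in RPMI/10% FBS, exposed 3 days to compound concentration range. Viability from ATP-based Cell Titer-GLO luminescence; IC50 derived.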

Row | SMILES | pIC50
1 | CNC(=O)c1cc2c(ccc3nnc(C)n32)n1Cc1cc(Cl)cc(CN2CCCC2)c1 [Example 132, 6-[3-Chloro-5-(pyrrolidin-1-ylmethyl)benzyl]-N,1-dimethyl-6H-pyrrolo[2,3-e][1,2,4]triazolo[4,3-a]pyridine-7-carboxamide 2.5×(trifluoroacetate) salt] | ≥ 6.00
2 | CCNC(=O)c1cc2c(ccc3nnc(C)n32)n1Cc1cc(Cl)cc(CN2CCCC2)c1 [Example 133, 6-[3-Chloro-5-(pyrrolidin-1-ylmethyl)benzyl]-N-ethyl-1-methyl-6H-pyrrolo[2,3-e][1,2,4]triazolo[4,3-a]pyridine-7-carboxamide bis(trifluoroacetate) salt] | ≥ 6.00
3 | CNC(=O)c1cc2c(ccc3nnc(C)n32)n1Cc1cc(Cl)cc(CN2CCC(F)(F)C2)c1 [Example 134, 6-{3-Chloro-5-[(3,3-difluoropyrrolidin-1-yl)methyl]benzyl}-N,1-dimethyl-6H-pyrrolo[2,3-e][1,2,4]triazolo[4,3-a]pyridine-7-carboxamide 2.4×(trifluoroacetate) salt] | ≥ 6.00
4 | CNC(=O)c1cc2c(ccc3nnc(C)n32)n1Cc1cc(Cl)cc(CN2CC(C)(C)C2)c1 [Example 135, 6-{3-Chloro-5-[(3,3-dimethylazetidin-1-yl)methyl]benzyl}-N,1-dimethyl-6H-pyrrolo[2,3-e][1,2,4]triazolo[4,3-a]pyridine-7-carboxamide bis(trifluoroacetate) salt] | ≥ 6.00
5 | CNC(=O)c1cc2c(ccc3nnc(C)n32)n1Cc1cccc(C(F)(F)F)c1 [Example 136, N,1-dimethyl-6-[3-(trifluoromethyl)benzyl]-6H-pyrrolo[2,3-e][1,2,4]triazolo[4,3-a]pyridine-7-carboxamide trifluoroacetate salt] | ≥ 6.00
6 | CCNC(=O)c1cc2c(ccc3nnc(C)n32)n1Cc1cccc(C(F)(F)F)c1 [Example 137, N-Ethyl-1-methyl-6-[3-(trifluoromethyl)benzyl]-6H-pyrrolo[2,3-e][1,2,4]triazolo[4,3-a]pyridine-7-carboxamide trifluoroacetate salt] | ≥ 6.00
7 | CNC(=O)Nc1cc2c(cc(C)n2Cc2cc(Cl)cc(CN3CCCC3)c2)n2c(C)nnc12 [Example 142, N-{6-[3-Chloro-5-(pyrrolidin-1-ylmethyl)benzyl]-1,7-dimethyl-6H-pyrrolo[2,3-e][1,2,4]triazolo[4,3-a]pyridin-4-yl}-N′-methylurea bis(trifluoroacetate) salt] | ≥ 6.00
8 | Cc1nnc2ccc3c(cc(-c4ncco4)n3Cc3ccccc3)n12 [Example 143, 6-benzyl-1-methyl-7-(1,3-oxazol-2-yl)-6H-pyrrolo[2,3-e][1,2,4]triazolo[4,3-a]pyridine trifluoroacetate salt] | ≥ 6.00
9 | Cc1cc2c(cc(NC3CCOCC3)c3nnc(C)n32)n1Cc1ccccc1 [Example 146, 6-benzyl-1,7-dimethyl-N-(tetrahydro-2H-pyran-4-yl)-6H-pyrrolo[2,3-e][1,2,4]triazolo[4,3-a]pyridin-4-amine] | 5.00 to 6.00
10 | Cc1cc2c(cc(N[C@@H]3CCOC3)c3nnc(C)n32)n1Cc1ccccc1 [Example 147, 6-benzyl-1,7-dimethyl-N-[(3R)-tetrahydrofuran-3-yl]-6H-pyrrolo[2,3-e][1,2,4]triazolo[4,3-a]pyridin-4-amine] | 5.00 to 6.00
11 | Cc1cc2c(cc(N[C@H]3CCOC3)c3nnc(C)n32)n1Cc1ccccc1 [Example 148, 6-benzyl-1,7-dimethyl-N-[(3S)-tetrahydrofuran-3-yl]-6H-pyrrolo[2,3-e][1,2,4]triazolo[4,3-a]pyridin-4-amine] | 5.00 to 6.00
12 | Cc1cc2c(cc(N[C@@H]3CCN(C(=O)OC(C)(C)C)C3)c3nnc(C)n32)n1Cc1ccccc1 [Example 149, tert-butyl (3R)-3-[(6-benzyl-1,7-dimethyl-6H-pyrrolo[2,3-e][1,2,4]triazolo[4,3-a]pyridin-4-yl)amino]pyrrolidine-1-carboxylate] | 5.00 to 6.00
13 | Cc1cc2c(cc(N[C@H]3CCN(C(=O)OC(C)(C)C)C3)c3nnc(C)n32)n1Cc1ccccc1 [Example 150, tert-butyl (3S)-3-[(6-benzyl-1,7-dimethyl-6H-pyrrolo[2,3-e][1,2,4]triazolo[4,3-a]pyridin-4-yl)amino]pyrrolidine-1-carboxylate] | 5.00 to 6.00
14 | Cc1cc2c(cc(N[C@@H]3CCNC3)c3nnc(C)n32)n1Cc1ccccc1 [Example 151, 6-benzyl-1,7-dimethyl-N-[(3R)-pyrrolidin-3-yl]-6H-pyrrolo[2,3-e][1,2,4]triazolo[4,3-a]pyridin-4-amine bis(trifluoroacetate) salt] | ≥ 6.00
15 | Cc1cc2c(cc(N[C@H]3CCNC3)c3nnc(C)n32)n1Cc1ccccc1 [Example 152, 6-benzyl-1,7-dimethyl-N-[(3S)-pyrrolidin-3-yl]-6H-pyrrolo[2,3-e][1,2,4]triazolo[4,3-a]pyridin-4-amine bis(trifluoroacetate) salt] | ≥ 6.00
16 | Cc1cc2c(cc(NC3CCN(C)CC3)c3nnc(C)n32)n1Cc1ccccn1 [Example 153, 1,7-dimethyl-N-(1-methylpiperidin-4-yl)-6-(pyridin-2-ylmethyl)-6H-pyrrolo[2,3-e][1,2,4]triazolo[4,3-a]pyridin-4-amine] | ≥ 6.00
17 | Cc1cc2c(cc(NC3CCN(C)CC3)c3nnc(C)n32)n1Cc1cccnc1 [Example 154, 1,7-dimethyl-N-(1-methylpiperidin-4-yl)-6-(pyridin-3-ylmethyl)-6H-pyrrolo[2,3-e][1,2,4]triazolo[4,3-a]pyridin-4-amine] | ≥ 6.00
18 | Cc1nnc2ccc3c(cc(-c4ccn[nH]4)n3Cc3cccc(Cl)c3)n12 [Example 155, 6-(3-chlorobenzyl)-1-methyl-7-(1H-pyrazol-5-yl)-6H-pyrrolo[2,3-e][1,2,4]triazolo[4,3-a]pyridine bis(trifluoroacetate) salt] | ≥ 6.00
19 | CCN1CC(CC#N)(n2ccc(-c3cc4c(ccc5nnc(C)n54)n3Cc3cccc(Cl)c3)n2)C1 [Example 158, (3-{3-[6-(3-Chlorobenzyl)-1-methyl-6H-pyrrolo[2,3-e][1,2,4]triazolo[4,3-a]pyridin-7-yl]-1H-pyrazol-1-yl}-1-ethylazetidin-3-yl)acetonitrile bis(trifluoroacetate) salt] | ≥ 6.00
20 | Cc1nnc2ccc3c(cc(-c4ccn(CCC(N)=O)n4)n3Cc3cccc(Cl)c3)n12 [Example 159, 3-{3-[6-(3-Chlorobenzyl)-1-methyl-6H-pyrrolo[2,3-e][1,2,4]triazolo[4,3-a]pyridin-7-yl]-1H-pyrazol-1-yl}propanamide trifluoroacetate salt] | ≥ 6.00
21 | CCN1CC(n2ccc(-c3cc4c(ccc5nnc(C)n54)n3Cc3cccc(Cl)c3)n2)C1 [Example 160, 6-(3-Chlorobenzyl)-7-[1-(1-ethylazetidin-3-yl)-1H-pyrazol-3-yl]-1-methyl-6H-pyrrolo[2,3-e][1,2,4]triazolo[4,3-a]pyridine bis(trifluoroacetate) salt] | ≥ 6.00
22 | Cc1nnc2ccc3c(cc(-c4ccn(C5CN(S(=O)(=O)N(C)C)C5)n4)n3Cc3cccc(Cl)c3)n12 [Example 161, 3-{3-[6-(3-Chlorobenzyl)-1-methyl-6H-pyrrolo[2,3-e][1,2,4]triazolo[4,3-a]pyridin-7-yl]-1H-pyrazol-1-yl}-N,N-dimethylazetidine-1-sulfonamide bis(trifluoroacetate) salt] | ≥ 6.00
23 | Cc1nnc2ccc3c(cc(-c4ccn(C5CN(C(=O)CN(C)C)C5)n4)n3Cc3cccc(Cl)c3)n12 [Example 162, 2-(3-{3-[6-(3-Chlorobenzyl)-1-methyl-6H-pyrrolo[2,3-e][1,2,4]triazolo[4,3-a]pyridin-7-yl]-1H-pyrazol-1-yl}azetidin-1-yl)-N,N-dimethyl-2-oxoethanamine bis(trifluoroacetate) salt] | ≥ 6.00
24 | CCC(=O)N1CC(n2ccc(-c3cc4c(ccc5nnc(C)n54)n3Cc3cccc(Cl)c3)n2)C1 [Example 163, 6-(3-Chlorobenzyl)-1-methyl-7-[1-(1-propionylazetidin-3-yl)-1H-pyrazol-3-yl]-6H-pyrrolo[2,3-e][1,2,4]triazolo[4,3-a]pyridine trifluoroacetate salt] | ≥ 6.00
25 | Cc1nnc2ccc3c(cc(-c4ccn(C5CN(C(=O)C6CC6)C5)n4)n3Cc3cccc(Cl)c3)n12 [Example 164, 6-(3-Chlorobenzyl)-7-{1-[1-(cyclopropylcarbonyl)azetidin-3-yl]-1H-pyrazol-3-yl}-1-methyl-6H-pyrrolo[2,3-e][1,2,4]triazolo[4,3-a]pyridine trifluoroacetate salt] | ≥ 6.00
26 | Cc1nnc2ccc3c(cc(-c4ccn(C5CN(S(=O)(=O)C6CC6)C5)n4)n3Cc3cccc(Cl)c3)n12 [Example 165, 6-(3-Chlorobenzyl)-7-{1-[1-(cyclopropylsulfonyl)azetidin-3-yl]-1H-pyrazol-3-yl}-1-methyl-6H-pyrrolo[2,3-e][1,2,4]triazolo[4,3-a]pyridine trifluoroacetate salt] | ≥ 6.00
27 | CCS(=O)(=O)N1CC(n2ccc(-c3cc4c(ccc5nnc(C)n54)n3Cc3cccc(Cl)c3)n2)C1 [Example 166, 6-(3-Chlorobenzyl)-7-{1-[1-(ethylsulfonyl)azetidin-3-yl]-1H-pyrazol-3-yl}-1-methyl-6H-pyrrolo[2,3-e][1,2,4]triazolo[4,3-a]pyridine trifluoroacetate salt] | ≥ 6.00
28 | CCOC(=O)N1CC(n2ccc(-c3cc4c(ccc5nnc(C)n54)n3Cc3cccc(Cl)c3)n2)C1 [Example 167, Ethyl 3-{3-[6-(3-chlorobenzyl)-1-methyl-6H-pyrrolo[2,3-e][1,2,4]triazolo[4,3-a]pyridin-7-yl]-1H-pyrazol-1-yl}azetidine-1-carboxylate trifluoroacetate salt] | ≥ 6.00
29 | Cc1nnc2ccc3c(cc(-c4ccn(CCC(=O)NC5COC5)n4)n3Cc3cccc(Cl)c3)n12 [Example 168, 3-{3-[6-(3-Chlorobenzyl)-1-methyl-6H-pyrrolo[2,3-e][1,2,4]triazolo[4,3-a]pyridin-7-yl]-1H-pyrazol-1-yl}-N-oxetan-3-ylpropanamide trifluoroacetate salt] | ≥ 6.00
